Consider one substance from patent publication US20220356538A1, “HEPATITIS B VIRUS MUTANTS WITH INCREASED […] CIRCULAR DNA” (The Penn State Research Foundation, priority 2019, published 2022).

In one test the test system is HBV cccDNA. The test is described as follows: HBV cccDNA levels: Southern blot of protein-free DNA from HepG2 cells transfected with HBV replication plasmids. In kind it is cell-based, Hepatitis B virus. The source says: (§1) FIG. 1. Effects of HBc linker mutations on cccDNA levels and NC stability. HBV replication plasmids expressing either the wild type (wt) HBc or indicated linker mutants were transfected into human hepatoma cells (HepG2). HBV DNA associated with NCs (core DNA) (lanes 1-8), or protein-free DNA (PF-DNA) (i.e., those DNA species no longer covalently attached to the viral RT protein and mostly released from NCs) (lanes 9-12) was extracted from the transfected cells and analyzed by Southern blot analysis using a radio-labeled HBV DNA probe. The core DNA shown in lanes 5-8 was extracted following prior treatment of the cell lysate with an exogenous DNase, which removes core DNA that was not protected by the capsid (i.e., from destabilized NCs). RC, rcDNA; CCC, cccDNA; SS, single stranded DNA—a reverse transcription intermediate during the synthesis of rcDNA from pgRNA.
FIG. 3. Effects of HBc linker and envelope mutations on cccDNA levels. […] HBV DNA associated with NCs (core DNA; A), or protein-free DNA (PF-DNA; B) (i.e., those DNA species no longer covalently attached to the viral RT protein and mostly released from NCs) was extracted from the transfected cells and analyzed by Southern blot analysis using a radio-labeled HBV DNA probe. […]

The next test relates to HBV core DNA. Description: HBV core DNA synthesis: Southern blot of NC-associated core DNA from transfected cells. In kind it is cell-based, Hepatitis B virus.
Excerpt: as §1
FIG. 4. HBc linker mutants increased HBV CCC DNA by 2-30 fold. Data are shown for LC (S141T/V148I/V149I), S141A, S141D, S141R, L143A, L143I, E145D, and TT146/147AA (a combination of T146A and T147A; aka T146A/T147A).

For the substance L140A [Mutant L140A], the cccDNA formation entry in the test on HBV cccDNA is given as “no cccDNA was made”. Besides, in the test with HBV core DNA, the “HBV core DNA synthesis” value is “blocked HBV core DNA synthesis”.
